In the supplement of paper PMC10307832:

Compound: COc1cc(Nc2ncc(F)c(Nc3ccc4c(n3)NC(=O)C(C)(C)O4)n2)cc(OC)c1OC [R406] + COc1cc2c(Oc3ccc(NC(=O)C4(C(=O)Nc5ccc(F)cc5)CC4)cc3F)ccnc2cc1OCCCN1CCOCC1 [Foretinib] (partner 0.25 µM)
Assay: relative viability (nuclei count vs DMSO), 5 days (fraction); higher = more cells survive
Details: first compound 0.08 µM
Procedure, shortened: (§1)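 For relative viability, nuclei counts in treated wells were divided by those in vehicle wells. Lung cancer cell lines had been pin-tool dosed in 1536-well plates the day after seeding and cultured for 5 days, then fixed and stained in one step (final 0.05% Triton X-100, 1% formaldehyde, 1 ug/ml Hoechst) and imaged at 4×. Doses were one drug alone or a fixed anchor-drug dose plus five library-drug doses (not always all listed) in √10 steps, and values are duplicate-plate medians.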

Cell Line | relative viability
NCI-H1755 | 0.923
HCC-15 | 1.07
PC-3 [JPC-3] | 0.981
EKVX | 0.79
LC-2-ad | 0.899
NCI-H1975 | 0.9
ABC-1 | 1.08
NCI-H1944 | 0.867
RERF-LC-KJ | 0.937

Same assay, conditions: first compound 0.253 µM

Cell Line | relative viability
NCI-H1755 | 0.946
HCC-15 | 1.12
PC-3 [JPC-3] | 1.08
EKVX | 1
LC-2-ad | 1.03
NCI-H1975 | 1.05
ABC-1 | 1.03
NCI-H1944 | 0.93
RERF-LC-KJ | 0.951

Same assay, conditions: first compound 0.8 µM

Cell Line | relative viability
NCI-H1755 | 0.894
HCC-15 | 1.19
PC-3 [JPC-3] | 1.09
EKVX | 0.821
LC-2-ad | 0.903
NCI-H1975 | 0.986
ABC-1 | 1.03
NCI-H1944 | 0.966
RERF-LC-KJ | 0.997

Same assay, conditions: first compound 2.53 µM

Cell Line | relative viability
NCI-H1755 | 0.677
HCC-15 | 1.01
PC-3 [JPC-3] | 0.827
EKVX | 0.567
LC-2-ad | 0.7
NCI-H1975 | 0.492
ABC-1 | 1.15
NCI-H1944 | 0.756
RERF-LC-KJ | 0.785

Same assay, conditions: first compound 8 µM

Cell Line | relative viability
NCI-H1755 | 0.598
HCC-15 | 0.643
PC-3 [JPC-3] | 0.372
EKVX | 0.609
LC-2-ad | 0.547
NCI-H1975 | 0.227
ABC-1 | 0.781
NCI-H1944 | 0.682
RERF-LC-KJ | 0.809

Compound: COc1cc(Nc2ncc(F)c(Nc3ccc4c(n3)NC(=O)C(C)(C)O4)n2)cc(OC)c1OC [R406] + NC(=O)Nc1cc(-c2cccc(F)c2)sc1C(=O)N[C@H]1CCCNC1 [AZD7762] (partner 0.2 µM)
Assay: as above
Details: first compound 0.08 µM
Procedure, shortened: as §1

Cell Line | relative viability
NCI-H1755 | 0.382
HCC-15 | 1.35
PC-3 [JPC-3] | 0.817
EKVX | 0.679
LC-2-ad | 0.856
ABC-1 | 0.912
NCI-H1944 | 0.484
RERF-LC-KJ | 1

Same assay, conditions: first compound 0.253 µM

Cell Line | relative viability
NCI-H1755 | 0.493
HCC-15 | 1.33
PC-3 [JPC-3] | 0.819
EKVX | 0.832
LC-2-ad | 0.898
NCI-H1975 | 0.757
ABC-1 | 0.769
NCI-H1944 | 0.449
RERF-LC-KJ | 1.23

Same assay, conditions: first compound 0.8 µM

Cell Line | relative viability
NCI-H1755 | 0.369
HCC-15 | 1.38
PC-3 [JPC-3] | 0.923
EKVX | 0.847
LC-2-ad | 0.89
NCI-H1975 | 0.771
ABC-1 | 0.865
NCI-H1944 | 0.523
RERF-LC-KJ | 1.29

Same assay, conditions: first compound 2.53 µM

Cell Line | relative viability
NCI-H1755 | 0.335
HCC-15 | 1.19
PC-3 [JPC-3] | 0.684
EKVX | 0.647
LC-2-ad | 0.827
NCI-H1975 | 0.341
ABC-1 | 0.858
NCI-H1944 | 0.388
RERF-LC-KJ | 0.692

Same assay, conditions: first compound 8 µM

Cell Line | relative viability
NCI-H1755 | 0.253
HCC-15 | 0.751
PC-3 [JPC-3] | 0.381
EKVX | 0.521
LC-2-ad | 0.343
NCI-H1975 | 0.325
ABC-1 | 0.669
NCI-H1944 | 0.349
RERF-LC-KJ | 0.988

Compound: O=C(/C=C/c1cccnc1)NCCCCC1CCN(C(=O)c2ccccc2)CC1 [Daporinad] + Cc1nc(NC(=O)N2CCC[C@H]2C(N)=O)sc1-c1ccnc(C(C)(C)C(F)(F)F)c1 [Alpelisib] (partner 2 µM)
Assay: as above
Details: first compound 0.0005 µM
Procedure, shortened: as §1

Cell Line | relative viability
NCI-H1755 | 0.883
HCC-15 | 0.89
PC-3 [JPC-3] | 1.03
EKVX | 0.83
LC-2-ad | 0.858
NCI-H1975 | 0.69
ABC-1 | 1.21
NCI-H1944 | 0.892
RERF-LC-KJ | 0.811

Same assay, conditions: first compound 0.001581 µM

Cell Line | relative viability
NCI-H1755 | 0.979
HCC-15 | 0.931
PC-3 [JPC-3] | 1.03
EKVX | 0.87
LC-2-ad | 0.983
NCI-H1975 | 0.602
ABC-1 | 1.18
NCI-H1944 | 0.907
RERF-LC-KJ | 0.893

Same assay, conditions: first compound 0.005 µM

Cell Line | relative viability
NCI-H1755 | 0.599
HCC-15 | 1.05
PC-3 [JPC-3] | 1.15
EKVX | 0.873
LC-2-ad | 0.938
NCI-H1975 | 0.755
ABC-1 | 0.969
NCI-H1944 | 0.822
RERF-LC-KJ | 0.88

Same assay, conditions: first compound 0.01581 µM

Cell Line | relative viability
NCI-H1755 | 0.898
HCC-15 | 0.901
PC-3 [JPC-3] | 1.04
EKVX | 1.18
LC-2-ad | 0.837
NCI-H1975 | 0.678
ABC-1 | 0.989
NCI-H1944 | 0.844
RERF-LC-KJ | 0.98

Compound: COc1cc(Nc2ncc(F)c(Nc3ccc4c(n3)NC(=O)C(C)(C)O4)n2)cc(OC)c1OC [R406] + Cc1cc(Nc2cc(N3CCN(C)CC3)nc(Sc3ccc(NC(=O)C4CC4)cc3)n2)n[nH]1 [Tozasertib] (partner 0.1 µM)
Assay: as above
Details: first compound 0.08 µM
Procedure, shortened: as §1

Cell Line | relative viability
NCI-H1755 | 0.463
HCC-15 | 0.437
PC-3 [JPC-3] | 0.942
EKVX | 0.369
LC-2-ad | 0.509
NCI-H1975 | 0.75
ABC-1 | 0.167
NCI-H1944 | 0.252
RERF-LC-KJ | 0.463

Same assay, conditions: first compound 0.253 µM

Cell Line | relative viability
NCI-H1755 | 0.529
HCC-15 | 0.484
PC-3 [JPC-3] | 0.964
EKVX | 0.45
LC-2-ad | 0.482
NCI-H1975 | 0.918
ABC-1 | 0.16
NCI-H1944 | 0.272
RERF-LC-KJ | 0.653

Same assay, conditions: first compound 0.8 µM

Cell Line | relative viability
NCI-H1755 | 0.605
HCC-15 | 0.458
PC-3 [JPC-3] | 1.01
EKVX | 0.499
LC-2-ad | 0.368
NCI-H1975 | 0.785
ABC-1 | 0.162
NCI-H1944 | 0.241
RERF-LC-KJ | 0.447

Same assay, conditions: first compound 2.53 µM

Cell Line | relative viability
NCI-H1755 | 0.504
HCC-15 | 0.483
PC-3 [JPC-3] | 0.88
EKVX | 0.317
LC-2-ad | 0.422
NCI-H1975 | 0.189
ABC-1 | 0.158
NCI-H1944 | 0.228
RERF-LC-KJ | 0.481

Same assay, conditions: first compound 8 µM

Cell Line | relative viability
NCI-H1755 | 0.331
HCC-15 | 0.208
PC-3 [JPC-3] | 0.516
EKVX | 0.273
LC-2-ad | 0.351
NCI-H1975 | 0.109
ABC-1 | 0.14
NCI-H1944 | 0.181
RERF-LC-KJ | 0.402
